Source: patent publication US7442703B2, “Piperidine derivatives useful as CCR5 antagonists” (priority 2001, dated 2008)
Where a name gives a salt, the structure may show the parent alone.

With Cc1ncnc(C)c1C(=O)N1CCC(C)(N2CCC(N(Cc3ccccc3)C3CCCN(S(=O)(=O)C4CC4)C3)CC2)CC1 (stereo not shown) (as salt: HCl) [Compound 112] the melting point was 190 to 195 °C.
